CC(=O)Oc1ccccc1C(=O)O
Conditions | solubility (mole fraction)
in acetone, 281.9 K | 0.061
in acetone, 290.6 K | 0.075
in acetone, 297.9 K | 0.088
in acetone, 304.4 K | 0.101
in acetone, 310.6 K | 0.114
in acetone, 315.3 K | 0.127
in acetone, 319.8 K | 0.139
in acetone, 323.3 K | 0.151
in acetone, 326.3 K | 0.162
in ethanol, 276.3 K | 0.025
in ethanol, 291.9 K | 0.049
in ethanol, 302.4 K | 0.071
in ethanol, 310 K | 0.093
in ethanol, 316.5 K | 0.113
in ethanol, 321.5 K | 0.133
in ethanol, 325.9 K | 0.152
in ethanol, 330.4 K | 0.17
in ethanol, 333.4 K | 0.187
in ethanol, 336.6 K | 0.204
in isopropanol, 281.6 K | 0.013
in isopropanol, 291.8 K | 0.032
in isopropanol, 304.1 K | 0.063
in isopropanol, 312.9 K | 0.091
in isopropanol, 316.1 K | 0.102
in isopropanol, 320.4 K | 0.118
in isopropanol, 322.7 K | 0.128
in isopropanol, 325.8 K | 0.143
in isopropanol, 327.7 K | 0.153
in isopropanol, 330.2 K | 0.167
in propylene glycol, 295.7 K | 0.017
in propylene glycol, 301.1 K | 0.025
in propylene glycol, 305.1 K | 0.033
in propylene glycol, 308.2 K | 0.041
in propylene glycol, 313.6 K | 0.056
in propylene glycol, 318.3 K | 0.071
in propylene glycol, 323.7 K | 0.092
in propylene glycol, 327.9 K | 0.112
in propylene glycol, 330.7 K | 0.126
in propylene glycol, 333.9 K | 0.145

— BigSolDB 2.1
